Key:
PHBPU = assay: Post-emergence herbicidal effect, greenhouse pot test; assay type: in vivo, Ipomoea purpurea; conditions: for pest or weed control at 20 g/ha / pest or weed control at 80 g/ha / pest or weed control at 320 g/ha: Ipomoea purpurea, 504 h, read-out: Post-emergence effect against PHBPU in %
Outline: (§1)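 Sandy loam pots, greenhouse. One-leaf stage (2–3 wk after sowing) foliar spray; WP/EC in water + 0.5% additive, 600 l/ha; 20–320 g/ha. Visual score ~3 wk, 0–100% vs untreated.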

ABUTH = assay: as above; assay type: in vivo, Abutilon theophrasti; conditions: visual rating about 3 weeks after treatment
Outline: as §1

ALOMY = assay: as above; assay type: in vivo, Alopecurus myosuroides; conditions: visual rating about 3 weeks after treatment; for pest or weed control at 80 g/ha / pest or weed control at 320 g/ha: Alopecurus myosuroides, 504 h, read-out: Post-emergence effect against ALOMY
Outline: as §1

DIGSA = assay: as above; assay type: in vivo, Digitaria sanguinalis; conditions: Digitaria sanguinalis, 504 h, visual rating about 3 weeks after treatment, read-out: Post-emergence effect against DIGSA
Outline: as §1

MATIN = assay: as above; assay type: in vivo, Tripleurospermum inodorum
Outline: as §1

ECHCG = assay: as above; assay type: in vivo, Echinochloa crus-galli; conditions: for pest or weed control at 80 g/ha / pest or weed control at 320 g/ha: read-out: Post-emergence effect against ECHCG in %
Outline: as §1

VIOTR = assay: as above; assay type: in vivo, Viola tricolor
Outline: as §1

VERPE = assay: as above; assay type: in vivo, Veronica persica
Outline: as §1

SETVI = assay: as above; assay type: in vivo, Setaria viridis
Outline: as §1

LOLRI = assay: as above; assay type: in vivo, Lolium rigidum; conditions: for pest or weed control at 80 g/ha / pest or weed control at 320 g/ha: Lolium rigidum, 504 h, read-out: Post-emergence effect against LOLRI in %
Source text: (§2) • ALOMY: Alopecurus myosuroides SETVI: Setaria viridis • AVEFA: Avena fatua POLCO: Fallopia convolvulus • AMARE: Amaranthus retroflexus ECHCG: Echinochloa crus-galli • LOLRJ: Lolium rigidum STEME: Stellaria media • VERPE: Veronica persica MATIN: Tripleurospermum inodorum • DIGSA: Digitaria sanguinalis ABUTH: Abutylon threophrasti • TRZAS: Triticum aestivum VIOTR: Viola tricolor • BRSNW: Brassica napus ZEAMX: Zea mays • PHBPU: Ipomoea purpurea GLXMA: Glycine max • ORYSA: Oryza sativa HORMU: Hordeum murinum
(§3) Seeds of monocotyledonous and dicotyledonous weeds and crop plants are placed in sandy loam in plastic or organic planting pots, covered with soil and cultivated in a greenhouse under controlled growth conditions. 2 to 3 weeks after sowing, the trial plants are treated at the one-leaf stage. The compounds of the invention, formulated in the form of wettable powders (WP) or as emulsion concentrates (EC), are then sprayed onto the green parts of the plants as aqueous suspension or emulsion with addition of 0.5% additive at a water application rate of 600 l/ha (converted). After the test plants have been kept in the greenhouse under optimum growth conditions for about 3 weeks, the activity of the preparations is rated visually in comparison to untreated controls. For example, 100% activity=the plants have died, 0% activity=like control plants.
(§4) Tables 20a to 38c below show the effects/crop compatibilities of selected compounds of the general formula (I) on various harmful plants at an application rate corresponding to 20 to 320 g/ha, which were obtained by the trial procedure specified above.

AVEFA = assay: as above; assay type: in vivo, Avena fatua; conditions: visual rating about 3 weeks after treatment; for pest or weed control at 80 g/ha / pest or weed control at 320 g/ha: Avena fatua, 504 h, read-out: Post-emergence effect against AVEFA
Outline: as §1

AMARE = assay: as above; assay type: in vivo, Amaranthus retroflexus; conditions: Amaranthus retroflexus, 504 h, visual rating about 3 weeks after treatment, read-out: Post-emergence effect against AMARE
Source text: as §2, §3, §4

ZEAMX = assay: Post-emergence herbicidal effect and crop plant compatibility, greenhouse pot test; assay type: in vivo, Zea mays; conditions: Zea mays, 504 h, 20 g/ha, one-leaf stage, rated visually after about 3 weeks vs untreated controls, read-out: Post-emergence effect at 20 g/ha against ZEAMX in %
Source text: as §2, §3, §4

POLCO = assay: Post-emergence herbicidal effect, greenhouse pot test; assay type: in vivo, Fallopia convolvulus
Outline: as §1

KCHSC = assay: as above; assay type: in vivo; conditions: 320 g/ha
Method: as §3, with “plants. Tables 20a to 38c below show the effects/crop compatibilities of selected compounds of the general formula (I) on various harmful plants at an application rate corresponding to 20 to 320 g/ha, which were obtained by the trial procedure specified above.” for “plants.”

[1] = Abutilon theophrasti, 504 h, 320 g/ha, read-out: Post-emergence effect against ABUTH
[2] = Tripleurospermum inodorum, 504 h, read-out: Post-emergence effect against MATIN in %
[3] = Tripleurospermum inodorum, 504 h, 320 g/ha, read-out: Post-emergence effect against MATIN in %
[4] = Echinochloa crus-galli, 504 h, 80 g/ha
[5] = Echinochloa crus-galli, 504 h, 320 g/ha
[6] = Viola tricolor, 504 h, 80 g/ha, read-out: Post-emergence effect against VIOTR in %
[7] = Viola tricolor, 504 h, 320 g/ha, read-out: Post-emergence effect against VIOTR in %
[8] = Veronica persica, 504 h, 80 g/ha, read-out: Post-emergence effect against VERPE in %
[9] = Veronica persica, 504 h, 320 g/ha, read-out: Post-emergence effect against VERPE in %
[10] = Setaria viridis, 504 h, 320 g/ha, read-out: Post-emergence effect against SETVI in %

Structure (SMILES): COC(=O)C(OC)Oc1nn(-c2ccccc2)c(-c2ccc(F)nc2)c1Cl (stereo not drawn) [Example I-26]
- pest or weed control at 20 g/ha (PHBPU): 80%
- pest or weed control at 80 g/ha (PHBPU; 80 g/ha): 80%
- pest or weed control at 320 g/ha (PHBPU; 320 g/ha): 90%
- pest or weed control at 320 g/ha (ABUTH; [1]): 90%
- pest or weed control at 80 g/ha (ALOMY): 90%
- pest or weed control at 320 g/ha (ALOMY; 320 g/ha): 90%
- pest or weed control at 80 g/ha (DIGSA; 80 g/ha): 80%
- pest or weed control at 320 g/ha (DIGSA; 320 g/ha): 90%
- pest or weed control at 20 g/ha (MATIN; Tripleurospermum inodorum, 504 h, 20 g/ha, read-out: Post-emergence effect against MATIN in %): 80%
- pest or weed control at 80 g/ha (MATIN; [2]): 80%
- pest or weed control at 320 g/ha (MATIN; [3]): 80%
- pest or weed control at 80 g/ha (ECHCG; [4]): 80%
- pest or weed control at 320 g/ha (ECHCG; [5]): 90%
- pest or weed control at 80 g/ha (VIOTR; [6]): 80%
- pest or weed control at 320 g/ha (VIOTR; [7]): 80%
- pest or weed control at 80 g/ha (VERPE; [8]): 90%
- pest or weed control at 320 g/ha (VERPE; [9]): 90%
- pest or weed control at 320 g/ha (SETVI; [10]): 90%
- pest or weed control at 80 g/ha (LOLRI): 90%
- pest or weed control at 320 g/ha (LOLRI; 320 g/ha): 90%
- pest or weed control at 80 g/ha (AVEFA; 80 g/ha): 80%
- pest or weed control at 320 g/ha (AVEFA; 320 g/ha): 90%
- pest or weed control at 20 g/ha (AMARE; 20 g/ha): 80%
- pest or weed control at 80 g/ha (AMARE; 80 g/ha): 80%
- pest or weed control at 320 g/ha (AMARE): 80%
- plant injury at 20 g/ha (ZEAMX): 20%

Structure (SMILES): COC(Oc1nn(-c2cc(F)ccc2F)c(-c2cncc(F)c2)c1C1CC1)C(=O)O (stereo not drawn) [Example I-109]
- pest or weed control at 80 g/ha (POLCO; Fallopia convolvulus, 504 h, 80 g/ha, read-out: Post-emergence effect against POLCO in %): 80%
- pest or weed control at 320 g/ha (POLCO; Fallopia convolvulus, 504 h, 320 g/ha, read-out: Post-emergence effect against POLCO in %): 90%
- pest or weed control at 80 g/ha (PHBPU; 80 g/ha): 90%
- pest or weed control at 320 g/ha (PHBPU; 320 g/ha): 90%
- pest or weed control at 20 g/ha (ABUTH; Abutilon theophrasti, 504 h, 20 g/ha, read-out: Post-emergence effect against ABUTH): 80%
- pest or weed control at 80 g/ha (ABUTH; Abutilon theophrasti, 504 h, 80 g/ha, read-out: Post-emergence effect against ABUTH): 80%
- pest or weed control at 320 g/ha (ABUTH; [1]): 90%
- pest or weed control at 320 g/ha (ALOMY; 320 g/ha): 90%
- pest or weed control at 320 g/ha (MATIN; [3]): 80%
- pest or weed control at 20 g/ha (ECHCG; Echinochloa crus-galli, 504 h, 20 g/ha, visual rating about 3 weeks after treatment, read-out: Post-emergence effect against ECHCG): 80%
- pest or weed control at 80 g/ha (ECHCG; [4]): 90%
- pest or weed control at 320 g/ha (ECHCG; [5]): 90%
- pest or weed control at 80 g/ha (VIOTR; [6]): 90%
- pest or weed control at 320 g/ha (VIOTR; [7]): 90%
- pest or weed control at 320 g/ha (KCHSC; 504 h, read-out: Post-emergence effect against KCHSC in %): 80%
- pest or weed control at 20 g/ha (VERPE; Veronica persica, 504 h, 20 g/ha, read-out: Post-emergence effect against VERPE in %): 80%
- pest or weed control at 80 g/ha (VERPE; [8]): 80%
- pest or weed control at 320 g/ha (VERPE; [9]): 80%
- pest or weed control at 320 g/ha (SETVI; [10]): 80%
- pest or weed control at 80 g/ha (LOLRI): 90%
- pest or weed control at 320 g/ha (LOLRI; 320 g/ha): 90%
- pest or weed control at 80 g/ha (AVEFA; 80 g/ha): 80%
- pest or weed control at 320 g/ha (AVEFA; 320 g/ha): 90%

Structure (SMILES): COC(Oc1nn(-c2cc(F)ccc2F)c(-c2cncc(F)c2)c1C1CC1)C(=O)O (stereo not drawn) [Example I-110]
- Post-emergence effect against POLCO in % (POLCO; 80 g/ha): 80%
- Post-emergence effect against POLCO in % (POLCO; 320 g/ha): 90%
- pest or weed control at 20 g/ha (POLCO; Fallopia convolvulus, 504 h, 20 g/ha, read-out: Post-emergence effect against POLCO in %): 80%
- Post-emergence effect against PHBPU in % (PHBPU; 80 g/ha): 90%
- Post-emergence effect against PHBPU in % (PHBPU; 320 g/ha): 90%
- pest or weed control at 20 g/ha (PHBPU): 90%
- Post-emergence effect against ABUTH (ABUTH; 20 g/ha): 80%
- Post-emergence effect against ABUTH (ABUTH; 80 g/ha): 90%
- Post-emergence effect against ABUTH (ABUTH; 320 g/ha): 90%
- Post-emergence effect against ALOMY (ALOMY; 320 g/ha): 100%
- pest or weed control at 80 g/ha (ALOMY): 80%
- Post-emergence effect against MATIN in % (MATIN; 320 g/ha): 80%
- pest or weed control at 80 g/ha (MATIN; [2]): 80%
- Post-emergence effect against ECHCG (ECHCG; 20 g/ha, visual rating about 3 weeks after treatment): 90%
- Post-emergence effect against ECHCG in % (ECHCG; 80 g/ha): 90%
- Post-emergence effect against ECHCG in % (ECHCG; 320 g/ha): 90%
- Post-emergence effect against VIOTR in % (VIOTR; 80 g/ha): 80%
- Post-emergence effect against VIOTR in % (VIOTR; 320 g/ha): 80%
- pest or weed control at 20 g/ha (VIOTR; Viola tricolor, 504 h, 20 g/ha, read-out: Post-emergence effect against VIOTR in %): 80%
- Post-emergence effect against KCHSC in % (KCHSC): 80%
- Post-emergence effect against VERPE in % (VERPE; 20 g/ha): 80%
- Post-emergence effect against VERPE in % (VERPE; 80 g/ha): 80%
- Post-emergence effect against VERPE in % (VERPE; 320 g/ha): 90%
- Post-emergence effect against SETVI in % (SETVI; 320 g/ha): 80%
- pest or weed control at 80 g/ha (SETVI; Setaria viridis, 504 h, 80 g/ha, read-out: Post-emergence effect against SETVI in %): 80%
- Post-emergence effect against LOLRI in % (LOLRI; 320 g/ha): 90%
- Post-emergence effect against AVEFA (AVEFA; 80 g/ha): 90%
- Post-emergence effect against AVEFA (AVEFA; 320 g/ha): 90%
- pest or weed control at 320 g/ha (AMARE): 80%

Source: patent publication US20240391862A1, “(1,4,5-TRISUBSTITUTED-1H-PYRAZOL-3-YL)OXY-2-ALKOXY ALKYL ACIDS AND THEIR DERIVATIVES, THEIR SALTS AND THEIR USE AS HERBICIDAL AGENTS” (Bayer AKtiengesellschaft, priority 2021, published 2024)
